Laboratory results as given in article PMC11601581 (bioRxiv, 2024).

Target: NTSR1 (Homo sapiens, UniProt P30989)
Assay: BRET1 β-arrestin1/2 recruitment to NTSR1, ligand alone
Type: cell-based

Chain of NTSR1 (P30989 whole entry): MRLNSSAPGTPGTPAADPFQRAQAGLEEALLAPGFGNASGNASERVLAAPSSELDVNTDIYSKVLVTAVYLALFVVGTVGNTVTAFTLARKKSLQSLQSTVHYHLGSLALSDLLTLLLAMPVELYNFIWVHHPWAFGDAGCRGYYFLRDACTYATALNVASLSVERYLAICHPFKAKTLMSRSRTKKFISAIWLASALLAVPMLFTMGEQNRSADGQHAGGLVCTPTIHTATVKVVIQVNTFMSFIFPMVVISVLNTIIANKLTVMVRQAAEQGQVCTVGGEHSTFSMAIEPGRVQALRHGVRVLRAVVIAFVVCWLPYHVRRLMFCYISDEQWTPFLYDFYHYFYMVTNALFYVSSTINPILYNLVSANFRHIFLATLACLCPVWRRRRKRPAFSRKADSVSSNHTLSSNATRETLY

agonist efficacy (β-arrestin1): without effect | agonist efficacy (β-arrestin2): without effect
SMILES: COc1cccc(OC)c1-c1cc(C(=O)NC2(C(=O)O)C3CC4CC(C3)CC2C4)nn1-c1ccc(C(=O)N(C)CCCN(C)C)cc1C(C)C (centres unmarked) [SR142948A]
